# Results as given in US20110144128A1, “Heterocyclic Carboxamide Compounds as Steroid Nuclear Receptors Ligands” (EXELIXIS, INC., priority 2005, published 2011).
# Legend:
# AR, ERα, GR and PR = assay: selectivity assays GAL4-AR, GAL4-ERα, GAL4-GR and GAL4-PR, antagonist mode; type: cell-based; conditions: antagonist activity against MR compared to AR
# Description: In certain cases, compounds were also evaluated for activity in selectivity assays with other steroid hormone receptor members, including AR, ER, GR and PR, as well as GAL4 alone. Steroid receptors used for selectivity assays were essentially generated as described above for pCMX-GAL4-MR, and comprised the LBD and a portion of the hinge region of the nuclear receptor of interest cloned in frame into the vector pCMX-GAL4 (Perlmann et al., 1993,Genes & Development 7:1411-1422) as described above.
# Assays run in antagonist mode included agonists as follows: AR; 25 nM dihydrotestosterone (DHT), ER; 4.5 nM estradiol, GR; 20 nM dexamethasone, and PR; 2 nM medroxyprogesterone (MPA), respectively. Assays run in agonist mode contained no supplemental compounds.
# (§1) The following table provides in vitro MR activity data of representative compounds described in the Examples. […] The “+” mark under the selectivity column is given to those compounds having greater than ten-fold antagonist activity against MR compared to at least one nuclear receptor selected from AR, ERα, GR and PR, as determined from the GAL4-AR, GAL4-ERα, GAL4-GR and GAL4-PR assays. The “++” mark under the selectivity column identifies those compounds having greater than ten-fold antagonist activity against MR compared to the four nuclear receptors AR, ERα, GR and PR, as determined from the GAL4-AR, GAL4-ERα, GAL4-GR and GAL4-PR assays.
# human MR = target: T1, human MR (Homo sapiens, UniProt P08235); assay: GAL4-MR cell based assay, antagonist format
# T1 construct: expressed in transfected cells; host or cells: CV-1 (African Green Monkey Kidney Cells), transiently transfected with pCMX-GAL4-MR
# T1 sequence (P08235 671-984): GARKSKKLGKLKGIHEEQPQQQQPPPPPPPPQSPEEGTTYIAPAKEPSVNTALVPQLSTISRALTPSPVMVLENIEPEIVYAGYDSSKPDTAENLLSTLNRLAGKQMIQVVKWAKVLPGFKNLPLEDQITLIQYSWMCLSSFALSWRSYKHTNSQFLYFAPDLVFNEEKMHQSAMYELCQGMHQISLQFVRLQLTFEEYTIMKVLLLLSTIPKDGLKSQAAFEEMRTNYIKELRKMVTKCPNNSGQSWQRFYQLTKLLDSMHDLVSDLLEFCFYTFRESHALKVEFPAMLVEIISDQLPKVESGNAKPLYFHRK
# Description: Compound activity was determined in a cell-based assay using a GAL4-MR chimera to identify compounds with the ability to modulate MR activity.
# The pCMX-GAL4-MR expression plasmid was constructed by cloning nucleotides encoding amino acids 671 to 984 of human MR (see GenBank sequence AAA59571) into the vector pCMX-GAL4 (Perlmann et al., 1993,Genes & Development 7:1411-1422) comprising nucleotides encoding for amino acids 1-147 of the GAL4 DNA binding domain.
# The TK-MH 100x4-Luc (GAL4UAS-TK-Luciferase) reporter construct was constructed by insertion of four copies of the Gal4 UAS (Kang et al. 1993, J. Biol. Chem. 268:9629-9635) into the Hind III site of TK-Luc. The parental plasmid, TK-Luc, was prepared by insertion of the Herpes simplex virus thymidine kinase gene promoter (−105 to +51) obtained from the plasmid pBLCAT2 by digestion with HindIII and XhoI (described in Luckow et al., 1987, Nuc. Acid. Res. 15:5490) into the plasmid MMTV-LUC described by Hollenberg and Evans, 1988, Cell 55:899-906) after removal of MMTV-LTR promoter sequence from MMTV-LUC via digestion with HindIII and XhoI. Correct cloning was confirmed by restriction digestion and/or sequencing.
# Assays were performed using CV-1 (African Green Monkey Kidney Cells) (ATCC) cells grown in T175 flasks at a density of 3×10^6 cells/flask in DMEM with 5% FBS. Cells were transfected one day after plating at 70-80 percent confluency with a DNA mixture containing (per T175 flask) 9 […] pCMX-GAL4-MR, 9 μg TK-MH100x4-Luc, and 2 μg pCMX β-Gal using the transfection reagent FuGENE6 (Roche Molecular Biochemicals, Indianapolis, Ind.) following recommended protocols and instructions provided by the manufacturer, and incubated with transfection reagents for 5 hours at 37° C.
# Transfected cells were trypsinized, resuspended in media, and 45 μL was added to assay plates at a density of approximately 5,000 cells/well using a MultiDrop dispenser (MTX Lab Systems, Inc., VA). The assay plates containing both compounds and screening cells were incubated for approximately 20 hours at 37° C. and 5% CO2 in a tissue culture incubator.
# After incubation of the transfected cells with compounds, Lysis buffer (1% Triton X-100, 10% Glycerol, 5 mM DTT, 1 mM EGTA, 25 mM Tricine, pH 7.8) and Luciferin assay buffer (0.73 mM ATP, 22.3 mM Tricine, 0.11 mM EDTA, 33.3 mM DTT, 0.2M MgSO4, 11 mM Luciferin, 6.1 mM Coenzyme A, 0.01 mM HEPES, pH 7.8) were prepared. Media was removed from the plates and lysis buffer and luciferin assay buffer mixed in a 1:1 ratio and then 30 μl of the mixture was added to each well using a Multidrop dispenser. Plates were read on the Northstar (Applied Biosystems, Foster City, Calif.) and data was analyzed using ActivityBase (ID Business Solutions, Ltd., Guildford, Surrey, UK). If required, luciferase values may be normalized for transfection efficiency by measuring β-galactosidase activity based on expression from the pCMX-βGal expression plasmid as described previously (Willy et al., 1995, Gene & Development, 9:1033-1045).
# as §1
SMILES,"Selectivity (AR, ERα, GR and PR)",IC50 (human MR) [nM]
"COc1cc(NC(=O)c2cc(C)n(-c3ccccc3C(F)(F)F)c2C)ccc1S(N)(=O)=O [2,5-dimethyl-1-(2-trifluoromethyl-phenyl)-1H-pyrrole-3-carboxylic acid (3-methoxy-4-sulfamoyl-phenyl)-amide]","++ (greater than ten-fold antagonist activity against MR compared to the four nuclear receptors AR, ERα, GR and PR)",< 500
"Cc1nc(C(=O)Nc2ccc(S(C)(=O)=O)cc2)n(C)c1-c1ccccc1Oc1ccccc1 [1,4-dimethyl-5-(2-phenoxy-phenyl)-1H-imidazole-2-carboxylic acid (4-methanesulfonyl-phenyl)-amide]","++ (greater than ten-fold antagonist activity against MR compared to the four nuclear receptors AR, ERα, GR and PR)",< 500
"Cc1[nH]c(C(=O)Nc2ccc(S(C)(=O)=O)cc2)c(C)c1-c1ccccc1C(F)(F)F [3,5-dimethyl-4-(2-trifluoromethyl-phenyl)-1H-pyrrole-2-carboxylic acid (4-methanesulfonyl-phenyl)-amide]","++ (greater than ten-fold antagonist activity against MR compared to the four nuclear receptors AR, ERα, GR and PR)",< 500
Cc1c(C(=O)Nc2ccc(S(C)(=O)=O)cc2)ncn1-c1ccccc1C(F)(F)F [5-methyl-1-(2-trifluoromethyl-phenyl)-1H-imidazole-4-carboxylic acid (4-methanesulfonyl-phenyl)-amide],–,1000 to 5000
"Cc1ccc(NC(=O)c2cc(C)n(-c3ccccc3C(F)(F)F)c2C)cc1F [2,5-Dimethyl-1-(2-trifluoromethyl-phenyl)-1H-pyrrole-3-carboxylic acid (3-fluoro-4-methyl-phenyl)-amide]",–,500 to 1000
Cc1c(C(=O)Nc2ccc(S(C)(=O)=O)cc2)cc(-c2ccc(F)cc2)n1-c1ccccc1C(F)(F)F [5-(4-fluorophenyl)-2-methyl-1-(2-trifluoromethylphenyl)-1H-pyrrole-3-carboxylic acid (4-methanesulfonyl-phenyl) amide],"++ (greater than ten-fold antagonist activity against MR compared to the four nuclear receptors AR, ERα, GR and PR)",< 500
"Cc1ccc(NC(=O)c2cc(C)n(-c3ccccc3C(F)(F)F)c2C)cc1Cl [2,5-Dimethyl-1-(2-trifluoromethyl-phenyl)-1H-pyrrole-3-carboxylic acid (3-chloro-4-methyl-phenyl)-amide]",–,< 500
"Cc1cc(C(=O)Nc2ccc(S(C)(=O)=O)cc2)c(C)n1-c1ccccc1C(=O)Nc1cccc([N+](=O)[O-])c1 [2,5-Dimethyl-1-[2-(3-nitro-phenylcarbamoyl)-phenyl]-1H-pyrrole-3-carboxylic acid (4-methanesulfonyl-phenyl)-amide]","+ (greater than ten-fold antagonist activity against MR compared to at least one nuclear receptor selected from AR, ERα, GR and PR)",500 to 1000
"Cc1cnc(NC(=O)c2cc(C)n(-c3ccccc3C(F)(F)F)c2C)s1 [2,5-Dimethyl-1-(2-trifluoromethyl-phenyl)-1H-pyrrole-3-carboxylic acid (5-methyl-thiazol-2-yl)-amide]",–,< 500
"CCNS(=O)(=O)c1ccc(NC(=O)c2cc(C)n(-c3ccccc3C(F)(F)F)c2C)cc1 [2,5-dimethyl-1-[2-(trifluoromethyl)phenyl]-1H-pyrrole-3-carboxylic acid (4-ethylsulfamoyl-phenyl)-amide]","+ (greater than ten-fold antagonist activity against MR compared to at least one nuclear receptor selected from AR, ERα, GR and PR)",1000 to 5000
"Cc1cc(C(=O)Nc2ccc(NS(C)(=O)=O)cc2)c(C)n1-c1ccccc1C(F)(F)F [2,5-dimethyl-1-(2-trifluoromethyl-phenyl)-1H-pyrrole-3-carboxylic acid (4-methanesulfonylamino-phenyl)-amide]","+ (greater than ten-fold antagonist activity against MR compared to at least one nuclear receptor selected from AR, ERα, GR and PR)",500 to 1000
"Cc1cc(C(=O)Nc2ccc(S(C)(=O)=O)cc2)c(C)n1-c1cccc2ccccc12 [2,5-Dimethyl-1-naphthalen-1-yl-1H-pyrrole-3-carboxylic acid (4-methanesulfonyl-phenyl)-amide]","++ (greater than ten-fold antagonist activity against MR compared to the four nuclear receptors AR, ERα, GR and PR)",< 500
"Cc1c(C(=O)Nc2ccc(S(C)(=O)=O)cc2)nn(C)c1-c1ccccc1C(F)(F)F [1,4-dimethyl-5-(2-trifluoromethyl-phenyl)-1H-pyrazole-3-carboxylic acid (4-methanesulfonyl-phenyl)-amide]","+ (greater than ten-fold antagonist activity against MR compared to at least one nuclear receptor selected from AR, ERα, GR and PR)",< 500
"Cc1cc(C(=O)Nc2ccc(S(C)(=O)=O)cc2)c(C)n1-c1ccc(NC(=O)c2ccc(C(F)(F)F)cc2C(F)(F)F)cc1C(F)(F)F [1-[4-(2,4-bis-trifluoromethyl-benzoylamino)-2-trifluoromethyl-phenyl]-2,5-dimethyl-1H-pyrrole-3-carboxylic acid (4-methanesulfonyl-phenyl)-amide]","+ (greater than ten-fold antagonist activity against MR compared to at least one nuclear receptor selected from AR, ERα, GR and PR)",1000 to 5000
"Cc1cc(C(=O)Nc2ccc(S(C)(=O)=O)cc2)c(C)n1-c1ccccc1/C=C/C(C)(C)C [1-[2-((E)-3,3-Dimethyl-but-1-enyl)-phenyl]-2,5-dimethyl-1H-pyrrole-3-carboxylic acid (4-methanesulfonyl-phenyl)-amide]","++ (greater than ten-fold antagonist activity against MR compared to the four nuclear receptors AR, ERα, GR and PR)",< 500
"Cc1c(C(=O)Nc2ccc(S(N)(=O)=O)cc2)cn(C)c1-c1ccccc1C(F)(F)F [1,4-dimethyl-5-(2-trifluoromethyl-phenyl)-1H-pyrrole-3-carboxylic acid (4-sulfamoyl-phenyl)-amide]","++ (greater than ten-fold antagonist activity against MR compared to the four nuclear receptors AR, ERα, GR and PR)",< 500
"Cc1sc(C(=O)Nc2ccc(S(C)(=O)=O)cc2)c(C)c1-c1ccccc1C(F)(F)F [3,5-dimethyl-4-(2-trifluoromethyl-phenyl)-thiophene-2-carboxylic acid (4-methanesulfonyl-phenyl)-amide]",–,500 to 1000
"Cc1cc(C(=O)Nc2ccc3ccccc3c2)c(C)n1-c1ccccc1C(F)(F)F [2,5-Dimethyl-1-(2-trifluoromethyl-phenyl)-1H-pyrrole-3-carboxylic acid naphthalen-2-ylamide]",–,< 500
